Test results from ChEMBL document CHEMBL1909046, “DrugMatrix in vitro pharmacology data”.

What was measured:
[1] = DRUGMATRIX: Glutamate, AMPA radioligand binding (ligand: [3H] AMPA); format: cell membranes, Rattus norvegicus, Wistar, Cerebral cortex, Membrane; settings: Not Active = under 50% inhibition at 10 µM
[2] = DRUGMATRIX: Purinergic P2X radioligand binding (ligand: [3H] alpha, beta-Methylene-ATP); format: cell membranes, Oryctolagus cuniculus, New Zealand albino, Urinary bladder, Membrane; settings: Not Active = under 50% inhibition at 10 µM
[3] = DRUGMATRIX: Imidazoline I2, Central radioligand binding (ligand: [3H] Idazoxan); format: cell membranes, Rattus norvegicus, Wistar, Cerebral cortex, Membrane; settings: Not Active = under 50% inhibition at 10 µM
[4] = target: 5-hydroxytryptamine receptor 4 (Cavia porcellus, UniProt O70528); format: cell membranes, Dunkin-Hartley, Striatum, Membrane; further: in other assays of this panel Not Active means under 50% inhibition at 10 µM
Chain of 5-hydroxytryptamine receptor 4 (O70528 whole entry): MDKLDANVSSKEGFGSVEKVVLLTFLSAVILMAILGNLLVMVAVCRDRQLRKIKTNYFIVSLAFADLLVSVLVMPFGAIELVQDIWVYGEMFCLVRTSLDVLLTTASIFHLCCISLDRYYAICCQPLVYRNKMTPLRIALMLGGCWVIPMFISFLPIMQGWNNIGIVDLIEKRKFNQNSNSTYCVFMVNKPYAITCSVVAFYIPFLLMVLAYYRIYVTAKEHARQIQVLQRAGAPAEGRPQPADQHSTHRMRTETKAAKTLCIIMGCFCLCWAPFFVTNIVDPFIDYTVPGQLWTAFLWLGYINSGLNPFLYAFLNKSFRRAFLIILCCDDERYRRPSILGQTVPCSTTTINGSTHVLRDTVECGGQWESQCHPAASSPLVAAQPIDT

Interstitial collagenase = target: T1, Interstitial collagenase (Homo sapiens, UniProt P03956); experiment: biochemical; format: tissue-based, Rheumatoid synovial fibroblasts;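 further: MMP-1 enzyme inhibition assay using a peptide substrate; in other assays of this panel Not Active means under 50% inhibition at 10 µM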
T1 sequence (P03956 whole entry): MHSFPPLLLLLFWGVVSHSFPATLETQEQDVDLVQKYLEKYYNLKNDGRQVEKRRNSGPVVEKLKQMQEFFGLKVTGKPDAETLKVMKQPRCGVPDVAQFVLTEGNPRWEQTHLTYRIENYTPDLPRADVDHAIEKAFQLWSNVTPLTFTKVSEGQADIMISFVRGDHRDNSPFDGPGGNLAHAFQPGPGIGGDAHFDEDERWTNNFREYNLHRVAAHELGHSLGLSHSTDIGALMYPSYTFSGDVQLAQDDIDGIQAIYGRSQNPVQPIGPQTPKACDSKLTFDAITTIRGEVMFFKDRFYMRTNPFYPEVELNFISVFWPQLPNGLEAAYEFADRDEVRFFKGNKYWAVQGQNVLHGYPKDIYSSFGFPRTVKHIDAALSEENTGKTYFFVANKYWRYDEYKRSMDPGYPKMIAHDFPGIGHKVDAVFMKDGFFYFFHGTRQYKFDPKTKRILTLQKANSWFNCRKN

[5] = DRUGMATRIX: Glutamate, NMDA, Agonism radioligand binding (ligand: [3H] CGP-39653); format: cell membranes, Rattus norvegicus, Wistar, Cerebral cortex, Membrane; settings: Not Active = under 50% inhibition at 10 µM
[6] = target: T2, Cysteinyl leukotriene receptor 1 (Homo sapiens, UniProt Q9Y271); format: cell membranes, Membrane; settings: cho-k1; further: in other assays of this panel Not Active means under 50% inhibition at 10 µM
T2 sequence (Q9Y271 whole entry): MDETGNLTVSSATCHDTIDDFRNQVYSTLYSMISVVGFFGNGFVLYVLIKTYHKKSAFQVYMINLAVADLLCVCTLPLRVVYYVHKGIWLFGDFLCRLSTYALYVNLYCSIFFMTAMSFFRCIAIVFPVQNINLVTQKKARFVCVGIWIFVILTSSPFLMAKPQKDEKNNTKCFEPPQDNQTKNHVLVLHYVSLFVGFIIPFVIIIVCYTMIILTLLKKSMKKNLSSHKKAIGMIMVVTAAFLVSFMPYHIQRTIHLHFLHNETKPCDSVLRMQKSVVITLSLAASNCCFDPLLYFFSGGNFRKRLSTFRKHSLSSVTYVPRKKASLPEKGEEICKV

NYSTATIN
Not Active: IC50 [1] | Ki [1] | IC50 [2] | Ki [2] | IC50 [3] | Ki [3] | IC50 [4] | Ki [4] | IC50 (Interstitial collagenase) | Ki (Interstitial collagenase) | IC50 [5] | Ki [5] | IC50 [6] | Ki [6]
